For this assay, the target named is SARS-CoV-2 3CL^pro (Severe acute respiratory syndrome coronavirus 2, UniProt P0DTD1). Put plainly: biochemical. It counts as biochemical. The note with it: for inhibition at 20 µM: 20 μM compound; for inhibitory activity against SARS-CoV-2 3CL^pro (in words, SAR discussion): compared with 7a (7i–7k with 7h).
The mark [1] stands for this setting: recombinant 3CLpro 40 nM, mean ± SD, n = 3.
The mark [2] stands for this setting: recombinant 3CLpro 40 nM, substrate 40 μM, mean ± SD, n = 3, read-out: SARS-CoV-2 3CL^pro IC50.

For orientation: inhibition means the drop in the measured response relative to a control, in per cent. The IC50 is the concentration that gives 50% inhibition.

Like-named read-outs stand apart in the source and are kept apart here. Bounds are passed on as bounds.

Consider `COc1ccc2c(c1)Cc1sc(NC(=O)c3cccc(F)c3)nc1-2` [compound 7i, 3-fluoro-N-(6-methoxy-8H-indeno[1,2-d]thiazol-2-yl)benzamide], for which, under setting [1], the inhibition at 20 µM was found to be 20.3 ± 4.7%. Further, under setting [2], the IC50 is above 20 µM.
For the compound `COc1ccc2c(c1)Cc1sc(NC(=O)c3cc(OC(C)=O)cc(OC(C)=O)c3)nc1-2` [compound 7g, 5-((6-methoxy-8H-indeno[1,2-d]thiazol-2-yl)carbamoyl)-1,3-phenylene diacetate], the “inhibitory activity against SARS-CoV-2 3CL^pro (in words, SAR discussion)” value (“inhibitory activity” below) is recorded as “dropped significantly”. Besides, under setting [1], the inhibition at 20 µM stood at 32.6 ± 6.8%. In addition, the IC50 under setting [2] is above 20 µM.
With `COc1cc(OC)cc(C(=O)Nc2nc3c(s2)CCc2cc(OC)ccc2-3)c1` [compound 7l], the “inhibitory activity” value is “did not show any inhibitory activity”. Besides, under setting [1], the inhibition at 20 µM was -13.1 ± 1.7%. In addition, under setting [2], the IC50 is above 20 µM.
Regarding `COc1cc(OC)cc(C(=O)Nc2nc(-c3ccc(OC)c(C)c3)cs2)c1` [compound 10b, 3,5-dimethoxy-N-(4-(4-methoxy-3-methylphenyl)thiazol-2-yl)benzamide], the “inhibitory activity” value is “lost inhibitory activities”. For the same compound, the inhibition at 20 µM under setting [1] is 1.8 ± 3.5%. Further, the IC50 under setting [2] is above 20 µM.
Regarding `COc1cc(OC)cc(C(=O)Nc2nc3c(s2)Cc2cc(OC)ccc2-3)c1` [compound 7a], under setting [1], the inhibition at 20 µM came to 89.5 ± 2%. Besides, under setting [2], the IC50 amounted to 1.28 ± 0.17 µM.
For `COc1cc(OC)cc(C(=O)Nc2nc3c(s2)Cc2cc(OCC(C)C)ccc2-3)c1` [compound 7c, N-(6-isobutoxy-8H-indeno[1,2-d]thiazol-2-yl)-3,5-dimethoxybenzamide], the “inhibitory activity” value is recorded as “completely abolished”. The inhibition at 20 µM under setting [1] is -3.1 ± 1.7%. Moreover, the IC50 under setting [2] is above 20 µM.
In the case of `CCCCOc1ccc2c(c1)Cc1sc(NC(=O)c3cc(OC)cc(OC)c3)nc1-2` [compound 7b, N-(6-butoxy-8H-indeno[1,2-d]thiazol-2-yl)-3,5-dimethoxybenzamide], the “inhibitory activity” value was “completely abolished”. In addition, the inhibition at 20 µM under setting [1] is 0.5 ± 4.9%. Also, the IC50 under setting [2] was above 20 µM.
Regarding `COc1cc(OC)cc(C(=O)Nc2nc3c(s2)Cc2ccc(OC)cc2-3)c1` [compound 4, 3,5-dimethoxy-N-(5-methoxy-8H-indeno[1,2-d]thiazol-2-yl)benzamide], the half-maximal inhibitory concentration (IC50) under setting [2] stood at 6.42 ± 0.9 µM.
Turning to `COc1cc(OC)cc(C(=O)Nc2nc3c(s2)Cc2cc(C)ccc2-3)c1` [compound 7d, 3,5-dimethoxy-N-(6-methyl-8H-indeno[1,2-d]thiazol-2-yl)benzamide], the “inhibitory activity” value was “completely abolished”. In addition, the inhibition at 20 µM under setting [1] was determined as 21.7 ± 2.2%. Under setting [2], the half-maximal inhibitory concentration (IC50) is above 20 µM.
The matching figures for `COc1cccc(C(=O)Nc2nc3c(s2)Cc2cc(OC)ccc2-3)c1` [compound 7h, 3-methoxy-N-(6-methoxy-8H-indeno[1,2-d]thiazol-2-yl)benzamide]: “almost maintained its inhibitory activities”, 72.5 ± 6.1% and 2.86 ± 0.11 µM.
With `COc1ccc2c(c1)Cc1sc(NC(=O)c3cccs3)nc1-2` [compound 7j, N-(6-methoxy-8H-indeno[1,2-d]thiazol-2-yl)thiophene-2-carboxamide], the IC50 was above 20 µM. Further, the inhibition at 20 µM under setting [1] worked out at 31.9 ± 18.2%.
`COc1ccc2c(c1)Cc1sc(NC(=O)c3ccc(Cl)cc3)nc1-2` [compound 7k, 4-chloro-N-(6-methoxy-8H-indeno[1,2-d]thiazol-2-yl)benzamide]: the inhibition at 20 µM under setting [1] worked out at 1.5 ± 4.5%. For the same compound, the IC50 under setting [2] is above 20 µM.
Turning to `COc1cc(OC)cc(C(=O)Nc2nc3c(s2)Cc2cc(Cl)ccc2-3)c1` [compound 7e, N-(6-chloro-8H-indeno[1,2-d]thiazol-2-yl)-3,5-dimethoxybenzamide], the “inhibitory activity” value is reported as “completely abolished”. The inhibition at 20 µM under setting [1] is 27.2 ± 5.3%. The IC50 under setting [2] is above 20 µM.
Regarding `COc1cc(OC)cc(C(=O)Nc2nc(-c3ccc(OC)cc3C)cs2)c1` [compound 10a], the “inhibitory activity” value is given as “lost inhibitory activities”. In addition, under setting [1], the inhibition at 20 µM stood at 1.9 ± 2.1%. The IC50 under setting [2] was above 20 µM.
For the compound `COc1ccc2c(c1)Cc1sc(NC(=O)c3cc(OC)c(OC)c(OC)c3)nc1-2` [compound 7f, 3,4,5-trimethoxy-N-(6-methoxy-8H-indeno[1,2-d]thiazol-2-yl)benzamide], the “inhibitory activity” value is recorded as “dropped significantly”. The inhibition at 20 µM under setting [1] worked out at 5 ± 5.6%. For the same compound, the IC50 under setting [2] was above 20 µM.

The values are drawn from publication PMC9145245, “Synthesis and Biochemical Evaluation of 8H-Indeno[1,2-d]thiazole Derivatives as Novel SARS-CoV-2 3CL Protease Inhibitors” (Molecules, 2022).
